Here are results for 55 molecules from PubChem BioAssay AID1322 (NMMLSC, 2008).

The target of this experiment is Bcl-2-like protein 1 (Homo sapiens) (UniProt Q07817). Description: Bcl-XL binding to Bim peptide disruption – biochemical, multiplexed, bead flow cytometry, human Bcl-XL, dose response (AID 1322). As to inhibition: test concentration not given here. The conditions noted are these: Bead-based flow cytometry, MCF; for inhibition: stronger effect = higher value. (In flow cytometry, cells or beads pass a laser one at a time.)
Bcl-2-like protein 1 (Homo sapiens), sequence (Q07817 whole entry, looked up): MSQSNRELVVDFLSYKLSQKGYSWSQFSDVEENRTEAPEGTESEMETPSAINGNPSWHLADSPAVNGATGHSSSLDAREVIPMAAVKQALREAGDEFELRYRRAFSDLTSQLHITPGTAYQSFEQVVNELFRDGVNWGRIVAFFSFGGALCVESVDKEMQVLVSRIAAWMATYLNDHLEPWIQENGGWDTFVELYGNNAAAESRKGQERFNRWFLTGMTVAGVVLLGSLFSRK

Molecules are shown by their SMILES. The source made the active and inactive calls. No rule for the calls is given here.

Take `Clc1ccc2c(N/N=C/c3ccc(Br)cc3)ccnc2c1`: the result was inactive.

`Cn1c(=O)[nH]c(=O)c2c1nc(N1CCOCC1)n2CCSc1nc2ccccc2[nH]1`: the inhibition entry is “inactive”.

For the molecule `Cc1ccc(-n2nc(C)c(C(=O)O)n2)c(C)c1`, the inhibition entry was “inactive”.

As for `COC(=O)CSc1ncnc2c1sc1nc(-c3ccco3)c3c(c12)CC(C)(C)OC3`, the inhibition result was “inactive”.

Consider `COc1ccc(NC(=O)c2ccco2)cc1NC(=O)c1ccco1`, for which the inhibition entry was “inactive”.

As for `C=CS(=O)(=O)c1sc(Cl)c(N2CCOCC2)c1[N+](=O)[O-]`, the outcome was inactive.

Consider `Cc1ccc(NC(=O)CSc2nc3ccccc3c(=O)n2CCCN2CCCCC2)cc1Cl`, for which the inhibition entry is “inactive”.

Turning to `CCOC(=O)C1CCCN(c2ncnc3c2cnn3-c2cccc(C)c2)C1` (stereo not given), the inhibition result is “inactive”.

With `O=C(Cn1c2ccccc2c(=O)c2ccccc21)N/N=C/c1ccc(N2CCCC2)c([N+](=O)[O-])c1`, the inhibition entry was “inactive”.

Turning to `CCN(CC)c1ccc(-c2nn3c(-c4n[nH]c5c4CCC5)nnc3s2)cc1`, the inhibition entry is “inactive”.

Regarding `c1ccc(-c2nc(N3CCOCC3)s[n+]2-c2ccccc2)cc1`, the inhibition entry was “inactive”.

Turning to `CCn1c(C)nc2cc(C(=O)N/N=C/c3ccc(O)c(O)c3O)ccc21`, the inhibition result is “inactive”.

With `CS(=O)(=O)NN1C(=O)c2ccccc2NC1c1ccccc1` (stereo not given), the outcome was inactive.

In the case of `COc1ccc(C2CC(=O)C3=C(C2)Nc2ccccc2NC3c2coc3ccccc3c2=O)cc1OC` (stereo not given), the inhibition entry is “inactive”.

For `Cc1ccc(NC(=O)C/C(N)=N/OC(=O)c2ccccc2)cc1`, the inhibition entry was “inactive”.

Consider `O=C(Cn1c(-c2ccccc2)noc1=O)N1CCC(Cc2ccccc2)CC1`, for which the result was inactive.

`CCN=c1scc(C)n1/N=C/c1ccc(O)c(O)c1O`: the inhibition entry was “inactive”.

Regarding `COc1ccc(C2=Nn3c(nnc3-c3ccccn3)SC2)cc1OC`, the inhibition result was “inactive”.

Take `Cc1ccc(/C=N/NC(=O)CSc2nnc(-c3ccc(Cl)cc3)n2-c2ccccc2)o1`: the inhibition result is “inactive”.

Consider `CCCCCCc1cc2cc(C(=O)Nc3ccccc3)c(=O)oc2cc1O`, for which the inhibition result was “inactive”.

Turning to `COc1ccccc1NC(=O)CSc1ncn(-c2ccccc2)n1`, the inhibition result was “inactive”.

As for `O=C(O)CCN1C(=O)/C(=C\c2ccc(-c3nc4ccccc4s3)o2)SC1=S`, the inhibition entry was “inactive”.

Consider `CCCn1c(N2CCN(C)CC2)nc2c1c(=O)[nH]c(=O)n2C`, for which the inhibition result was “inactive”.

Consider `CC(C)C(=O)NC(c1ccccc1)c1cc([N+](=O)[O-])c2cccnc2c1O` (stereo not given), for which the outcome was inactive.

Take `CN1C2C=C3C(C#N)=C(N)C(C#N)(C#N)[C@@H](c4ccsc4)[C@@H]3C1CC2` (stereo not given in full): the inhibition result is “inactive”.

As to `COC(=O)C1C2c3ccccc3OC1(C)N=c1s/c(=C/c3cnn(C)c3C)c(=O)n12` (stereo not given), the inhibition result is “inactive”.

`CCn1c(SCC(=O)Nc2ccc(C)cc2)nnc1-c1ccc(O)cc1`: the inhibition entry is “inactive”.

For the molecule `COc1cccc2c(SCC(=O)N/N=C/c3ccc(O)c(O)c3)cc(C)nc12`, the inhibition result was “inactive”.

Regarding `CCOc1cc(C2Nc3cccc4cccc(c34)N2)ccc1O`, the inhibition result was “inactive”.

For the molecule `CNc1ccccc(C(=O)/C=C/c2ccccc2OC)c1=O`, the inhibition entry is “inactive”.

Take `COc1ccc(S(=O)(=O)NCCOc2cccc3cccnc23)cc1OC`: the outcome was inactive.

As for `Cc1cc(N2CCN(C)CC2)nc2ccc(NC(=S)N3CCC4(CC3)OCCO4)cc12`, the result was inactive.

Regarding `O=C1CCc2cc(S(=O)(=O)NCCCC(=O)N3CCN(Cc4ccc5c(c4)OCO5)CC3)ccc2N1`, the result was inactive.

For the molecule `O=C(NCCCO)Nc1ccc2nc(-c3ccco3)c(-c3ccco3)nc2c1`, the inhibition entry was “inactive”.

As to `O=C1NC(=S)S/C1=C/c1ccc(N2CCOCC2)o1`, the inhibition result is “inactive”.

With `Cn1cc(CN2C[C@]3(C)C[C@H]2CC(C)(C)C3)c(-c2ccc3c(c2)OCCO3)n1`, the outcome was inactive.

Consider `CCSc1ncnc2sc(C)c(C)c12`, for which the outcome was inactive.

Consider `Cc1cc(NC(=O)CCSc2ccccc2)ccc1Br`, for which the inhibition result was “inactive”.

As to `O=[N+]([O-])c1c(NCCO)cc(Sc2nc3ccccc3s2)c2nonc12`, the inhibition entry is “inactive”.

As to `Cc1cc(NC(=O)CCCC(=O)NCc2ccccc2)no1`, the inhibition result is “inactive”.

As for `N/C(Cc1ccc(Cl)c(Cl)c1)=N\OC(=O)c1cccs1`, the inhibition result is “inactive”.

Consider `COc1ccc(C(=O)/C=C/c2cc(OC)c(O)c(OC)c2)c(F)c1`, for which the inhibition entry is “inactive”.

In the case of `CSc1ccccc1NC(=O)CN(C)CC(=O)Nc1ccc(N2CCOCC2)cc1`, the result was inactive.

As to `COc1cc(/C=C2\SC(=S)NC2=O)ccc1OS(=O)(=O)c1ccccc1`, the inhibition result was “inactive”.

Regarding `CNCc1ccccc1Sc1ccc(O)c(O)c1`, the inhibition result is “inactive”.

On to `CCN(CC)CCN(C(=O)c1ccc(N2C(=O)CCC2=O)cc1)c1nc2cc3c(cc2s1)OCCO3`, for which the outcome was inactive.

With `CC(NCc1ccc(-c2ccccc2)cc1)C(O)c1ccccc1` (stereo not given), the outcome was inactive.

As for `CC1CC2=C(NC(=S)NC2c2ccccc2F)/C(=C/c2ccccc2F)C1` (stereo not given), the outcome was inactive.

For `COc1ccc(-n2cc(-c3ccc(OC)c(OC)c3)[nH]c2=S)cc1`, the inhibition entry was “inactive”.

With `Cn1c(N)c(C(=O)COC(=O)c2cc(-c3ccco3)nc3ccccc23)c(=O)n(C)c1=O`, the inhibition entry was “inactive”.

As to `COc1cc(/C=N/Nc2nn3cnnc3c3ccccc23)ccc1O`, the EC50 result is “inactive”.

In the case of `COc1ccc(OC)c(Nc2ccc(C(=O)O)cc2[N+](=O)[O-])c1`, the result was inactive.

Turning to `OC(COc1ccc2ccccc2c1)CN1CCCC1` (stereo not given), the inhibition result is “inactive”.

With `CCSc1ncc(Cl)c(C(=O)Nc2sc3c(c2C(=O)NCc2cccnc2)CCCC3)n1`, the inhibition entry was “inactive”.

Take `CC(=O)c1ccc2c(c1)C1C=CCC1C(c1ccncc1)N2` (stereo not given): the inhibition result was “inactive”.
